Assay results published in ChEMBL document CHEMBL2177021, “Flavaglines as potent anticancer and cytoprotective agents” (J Med Chem, 2012).
The source made the active and inactive calls. The rule behind the calls is not given here.

Key:
HL-60 = experiment: cells; conditions: Homo sapiens, HL-60, 72 h
Description: Cytotoxicity against human HL60 cells incubated for 72 hrs by MTS assay

KB = conditions: Homo sapiens, 72 h
H9c2 [1] = experiment: Cardioprotection in rat H9c2 cells assessed as reduction in doxorubicin-induced toxicity at 10 nM pre-treated 10 hrs before doxorubicin challenge and measured 14 hrs post doxorubicin challenge by propidium iodide and annexin V staining; format: functional, cell-based
H9c2 [2] = experiment: Cardioprotection in rat H9c2 cells assessed as reduction in doxorubicin-induced toxicity at 100 nM pre-treated 10 hrs before doxorubicin challenge and measured 14 hrs post doxorubicin challenge by propidium iodide and annexin V staining; format: functional, cell-based
HCT-116 = conditions: Homo sapiens, HCT-116, 72 h
[3] = Cytotoxicity against human HL60R cells overexpressing Pgp incubated for 72 hrs by MTS assay
[4] = tested on: Cerebellar granule neurone; experiment: Neuroprotection in mouse cerebellar granule neurons assessed as reduction in cisplatin-induced neurotoxicity at 10 nM incubated simultaneously with cisplatin for 48 hrs by MTT assay; format: functional
Rattus norvegicus [5] = organism: Rattus norvegicus; experiment: Neuroprotection in Wistar rat DA neurons assessed as reduction in MPP+-induced neurotoxicity at 10 uM pre-treated 1 day before MPP+ by tyrosine hydroxylase detection based immunocytochemistry; format: functional
Rattus norvegicus [6] = organism: Rattus norvegicus; experiment: Neuroprotection in Wistar rat DA neurons assessed as reduction in MPP+-induced neurotoxicity at 100 nM pre-treated 1 day before MPP+ by tyrosine hydroxylase detection based immunocytochemistry; format: functional
[7] = Toxicity in mouse cerebellar granule neurons assessed as induction of apoptosis at 0.25 to 10 nM incubated for 48 hrs by MTT assay; conditions: cerebellar granule neurone, 0.01 µM
[8] = tested on: Cerebellar granule neurone; experiment: Neuroprotection in mouse cerebellar granule neurons assessed as reduction in cisplatin-induced neurotoxicity at 5 nM incubated simultaneously with cisplatin for 48 hrs by MTT assay; format: functional
Rattus norvegicus [9] = organism: Rattus norvegicus; experiment: Neuroprotection in Wistar rat DA neurons assessed as reduction in MPP+-induced neurotoxicity at 1 to 100 nM pre-treated 1 day before MPP+ by tyrosine hydroxylase detection based immunocytochemistry; format: functional
Rattus norvegicus [10] = organism: Rattus norvegicus; experiment: Neuroprotection in Wistar rat DA neurons assessed as reduction in MPP+-induced neurotoxicity at 0.1 to 1000 nM pre-treated 1 day before MPP+ by tyrosine hydroxylase detection based immunocytochemistry; format: functional
Rattus norvegicus [11] = organism: Rattus norvegicus; experiment: Neuroprotection in Wistar rat DA neurons assessed as reduction in MPP+-induced neurotoxicity at 10 nM pre-treated 1 day before MPP+ by tyrosine hydroxylase detection based immunocytochemistry; format: functional
[12] = tested on: Cerebellar granule neurone; experiment: Neuroprotection in mouse cerebellar granule neurons assessed as reduction in cisplatin-induced neurotoxicity at 0.25 to 10 nM incubated simultaneously with cisplatin for 48 hrs by MTT assay; format: functional
[13] = tested on: Cerebellar granule neurone; experiment: Neuroprotection in mouse cerebellar granule neurons assessed as reduction in cisplatin-induced neurotoxicity at 1 to 5 nM incubated simultaneously with cisplatin for 48 hrs by MTT assay; format: functional
Rattus norvegicus [14] = organism: Rattus norvegicus; experiment: Neuroprotection in Wistar rat DA neurons assessed as reduction in MPP+-induced neurotoxicity at 1 to 1000 nM pre-treated 1 day before MPP+ by tyrosine hydroxylase detection based immunocytochemistry; format: functional
Mus musculus [15] = organism: Mus musculus; experiment: Cardioprotective effect in mouse assessed as attenuation of cardiac fibrosis by measuring reduction in mouse mortality; format: functional, Heart; set-up: scale not given: the % may be the effect or the level left
Mus musculus [16] = organism: Mus musculus; experiment: Cardioprotective effect in mouse assessed as attenuation of cardiomyocyte apoptosis by measuring reduction in mouse mortality; format: functional; set-up: scale not given: the % may be the effect or the level left
Rattus norvegicus [17] = organism: Rattus norvegicus; experiment: Neuroprotection in Wistar rat DA neurons assessed as reduction in MPP+-induced neurotoxicity at 1 nM pre-treated 1 day before MPP+ by tyrosine hydroxylase detection based immunocytochemistry; format: functional

Compound	IC50 (HL-60) [nM]	IC50 (KB) [nM]	Activity (H9c2 [1])	Activity (H9c2 [2])	IC50 (HCT-116) [nM]	IC50 [3] [nM]	also measured
COc1cc(OC)c2c(c1)O[C@@]1(c3ccc(Br)cc3)[C@H](c3cccc(F)c3)C[C@H](NC(=O)CN(C)C)[C@@]21O	4.8	5.8	Active	Active	5	5.6	–
COc1cc(OC)c2c(c1)O[C@@]1(c3ccc(Br)cc3)[C@H](c3cccc(F)c3)C[C@H](NC(N)=O)[C@@]21O	3.3	2.9	–	–	2.1	–	–
COc1ccc([C@@]23Oc4cc(OC)cc(OC)c4[C@]2(O)[C@H](O)C[C@H]3c2cccc(F)c2)cc1	94	41	Active	Active	23	60	Activity [4]: inactive; Activity (Rattus norvegicus [5]): inactive; Activity (Rattus norvegicus [6]): Active; Activity [7]: Non-toxic; Activity [8]: Active
COc1cc(OC)c2c(c1)O[C@@]1(c3ccc(Br)cc3)[C@H](c3cccc(F)c3)[C@@H](C(N)=O)[C@@H](O)[C@@]21O	1.4	1.2	Active	inactive	1.2	3.3	–
COc1cc(OC)c2c(c1)O[C@@]1(c3ccc(Br)cc3)[C@H](c3cccc(F)c3)C[C@H](NC=O)[C@@]21O	3.4	3.5	Active	–	1.9	1.4	–
COc1cc(OC)c2c(c1)O[C@@]1(c3ccc(Cl)cc3)[C@H](c3cccc(F)c3)C[C@H](NC=O)[C@@]21O	13	10	Active	Active	8.2	–	–
COC(=O)[C@H]1[C@@H](O)[C@@]2(O)c3c(OC)cc(OC)cc3O[C@@]2(c2ccc(Cl)cc2)[C@@H]1c1ccccc1	29	2.4	–	–	19	13	–
CC[C@]1(O)C[C@@H]2CN(CCc3c([nH]c4ccccc34)[C@@](C(=O)OC)(c3cc4c(cc3OC)N(C)[C@H]3[C@@](O)(C(=O)OC)[C@H](OC(C)=O)[C@]5(CC)C=CCN6CC[C@]43[C@@H]65)C2)C1 [VINBLASTINE]	–	–	–	–	–	> 100	–
COc1cc(OC)c2c(c1)O[C@@]1(c3ccc(Br)cc3)[C@H](c3cccc(F)c3)C[C@H](NC(=O)CO)[C@@]21O	31	37	inactive	Active	22	42	–
CC(=O)O[C@@]12CO[C@@H]1C[C@H](O)[C@@]1(C)C(=O)[C@H](O)C3=C(C)[C@@H](OC(=O)[C@H](O)[C@@H](NC(=O)OC(C)(C)C)c4ccccc4)C[C@@](O)([C@@H](OC(=O)c4ccccc4)[C@H]21)C3(C)C [DOCETAXEL]	–	–	–	–	–	531	–
COC(=O)[C@H]1[C@@H](O)[C@@]2(O)c3c(OC)cc(OC)cc3O[C@@]2(c2ccc(Br)cc2)[C@@H]1c1cccc(F)c1	3.2	2.8	–	–	2.4	14	Activity (Rattus norvegicus [9]): Active
COC(=O)N[C@H]1C[C@@H](c2cccc(F)c2)[C@]2(c3ccc(Cl)cc3)Oc3cc(OC)cc(OC)c3[C@]12O	71	50	–	Active	38	–	Activity (Rattus norvegicus [10]): Active
COc1cc(OC)c2c(c1)O[C@@]1(c3ccc(Br)cc3)[C@H](c3cccc(F)c3)C[C@H](NC(C)=O)[C@@]21O	10	8.4	Active	inactive	7.5	7.1	–
COc1cc(OC)c2c(c1)O[C@@]1(c3ccc(Cl)cc3)[C@H](c3cccc(F)c3)C[C@H](NC(=O)N(C)C)[C@@]21O	3.2	2.1	Active	Active	1.9	–	Activity (Rattus norvegicus [11]): inactive
COc1cc(OC)c2c(c1)O[C@@]1(c3ccc(Br)cc3)[C@H](c3ccccc3)C[C@H](NC=O)[C@@]21O	–	–	Active	–	–	1.7	Activity [12]: Active; Activity [13]: Active; Activity (Rattus norvegicus [9]): Active; Activity (Rattus norvegicus [14]): Active; Activity [7]: Non-toxic
COc1cc(OC)c2c(c1)O[C@@]1(c3ccc(Cl)cc3)[C@H](c3ccccc3)C[C@@H](O)[C@@]21O	5.9	6.6	Active	Active	4.6	2.4	–
COc1cc(OC)c2c(c1)O[C@@]1(c3ccc(Br)cc3)[C@H](c3ccccc3)C[C@@H](O)[C@@]21O	3.8	2.4	Active	Active	5.8	4.5	Activity (Rattus norvegicus [11]): Active; Activity (Mus musculus [15]): 50%; Activity (Mus musculus [16]): 50%
CCC(=O)N[C@H]1C[C@@H](c2cccc(F)c2)[C@]2(c3ccc(Br)cc3)Oc3cc(OC)cc(OC)c3[C@]12O	6.2	7.8	Active	inactive	5.3	4.9	–
COc1cc(OC)c2c(c1)O[C@@]1(c3ccc(Br)cc3)[C@H](c3cccc(F)c3)C[C@@H](O)[C@@]21O	8.9	10	Active	Active	5.3	3.1	–
COc1cc(OC)c2c(c1)O[C@@]1(c3ccc(Br)cc3)[C@H](c3cccc(F)c3)C[C@H](NC(=O)N(C)C)[C@@]21O	4.1	3.6	Active	Active	2.4	2.2	Activity (Rattus norvegicus [10]): Active; Activity (Rattus norvegicus [17]): Active; Activity [7]: Non-toxic
COC(=O)[C@H]1[C@@H](O)[C@@]2(O)c3c(OC)cc(OC)cc3O[C@@]2(c2ccc(OC)cc2)[C@@H]1c1cccc(F)c1	20	9.9	–	–	5.2	28	–
